Earlier results, collected in patent US20140275235A1, “Treatment of Proliferative Disorders” (priority 2013, published 2014).

Details: literature refs 11, 12

Bioavailability: 80% | Time to peak plasma levels: ≤ 2 h
Structure (SMILES): C[S+]([O-])CCCCN=C=S (centres unmarked) [SFN, sulforaphane]
